Laboratory results taken from US12065468B2, “Heme-binding small peptide” (priority 2021, dated 2024).
“Also recorded” adds a separate entry of the source.

Columns and labels:
[1] = test system: iron uptake genes (hmuP, foxA, fhuP, rhrA, fbpA), rirA; assay: qRT-PCR of iron-related genes in S. meliloti; type: cell-based, Sinorhizobium meliloti; conditions: 30 mins; for expression of iron uptake genes: 2 μM (NSR247 up to 15 uM)
Description: RNA isolation and qRT-PCR analysis: Cells were grown in LB until they reached an O.D.600 nm of 0.2. Then cells were spun down and suspended in minimal media with or without appropriate FeSO4 concentrations for 1 hour. NCR247 was then added and 5 ml of appropriate cultures were spun down at given time intervals. Total RNA was extracted using Trizol™ (Thermo Fisher Scientific) method. Qiagen RNeasy™ kit was used to purify the RNA. On-column DNA removal was carried out using DNase I from NEB. 500 ng of each RNA sample was used to make cDNA using the iScript™ cDNA synthesis kit (Biorad). qRT-PCRs were performed as described previously^86. The standard curve method was used for relative quantification. In short, a standard curve was generated for each gene of interest (including SMc00128) by setting up qpCR reactions to amplify increasing amounts of S. meliloti Rm 1021 genomic DNA. […] This curve was then used for extrapolating relative expression level of each gene of interest in a particular sample to obtain the starting quantities (SQ). This value is then normalized to the SQ values of SMc00128 obtained for respective sample. […] These normalized values are then expressed as an average of triplicates, with standard deviation (s.d.) represented by the error bars.

Toxoplasma gondii = assay: T. gondii plaque assay on human foreskin fibroblasts; type: cell-based; conditions: 6 hr. pre-treatment of parasites
Description: Parasite and host cell culture: T. gondii parasites (strain RH, ATCC 50838) were grown in human foreskin fibroblasts (HFFs) maintained in DMEM (GIBCO) supplemented with 3% inactivated fetal calf serum (IFS) and 10 μg/mL gentamicin (Thermo Fisher Scientific), referred to as D3. Where noted, DMEM supplemented with 10% IFS and 10 μg/mL gentamicin was used, referred to as D10.
Plaque Assays: Freshly lysed parasites were filtered through 5 μm filters and spun down at 1000×g and 18° C. for 10 min. Parasites were resuspended to 6E6 parasites/mL in Fluorobrite™ media supplemented with 3% IFS. Parasites were incubated with either peptide or vehicle for 6 hours at 37° C. and 5% CO2. Parasites were then spun down, washed once in 2 mL of Fluorobrite™ supplemented with 3% IFS, and resuspended in 1 mL of media. 2000 parasites were inoculated into each well of 6-well plates of HFFs maintained in D10 and allowed to grow undisturbed for 9 days. Plates were washed with PBS and fixed for 10 min at room temperature with 100% ethanol. Monolayers were visualized by staining for 5 min at room temperature with crystal violet solution, followed by two washes with PBS, one wash with water, and drying overnight.

Z-ring (FtsZ-GFP) = assay: Z-ring formation, FtsZ-GFP fluorescent microscopy; type: cell-based, Sinorhizobium meliloti; conditions: 2 μM, 200 mins; listed as L-NCR247
Description: FIG. 15. […] Visualization of Z-ring formation during cell division by FtsZ-GFP labeled cells using fluorescent microscopy. Data indicates percentage of cells displaying fully formed Z-rings when synchronized and treated with upon treatment with 2 μM of L or D-NCR247 for 200 mins. […] Data are presented as average of three biological replicates ±s.d.
Since NCR247 treatment leads to gene expression change in several genes of the CtrA regulon, we investigated the CtrA regulon and the cell division inhibition role of NCR247. […] In addition, this phenotype is retained in a peptide transporter bacA mutant indicating cell division inhibition happens due to protein-peptide interaction outside the cytoplasm.

Sinorhizobium meliloti [2] = assay: S. meliloti cell death in 24 hours (plating); type: cell-based
Sinorhizobium meliloti [3] = assay: S. meliloti growth curve; type: cell-based; conditions: increasing amounts of peptide; minimal medium
Description: Growth curve: All growth curve experiments were performed in a Tecan SPARK 10M microplate reader using polystyrene flat bottomed, non-treated, sterile 96 well plates. Overnight cultures grown in LBMC were washed and were subcultured (1:100 dilution) in minimal medium supplemented with respective iron concentrations. The plates were programed to continuously shake at 150 rpm and temperature maintained at 30° C. Optical density was measured at 600 nm every 60 minutes.

Porphyromonas gingivalis = assay: Cell viability assay for P. gingivalis; type: cell-based; conditions: 48 hours, anaerobic, Brucella Broth
Description: Cell viability assays for H. influenza and P. gingivalis: Haemophilus influenzae Rd [KW20] was obtained from ATCC (51907). Standard growth and culturing techniques were followed as described previously^92. Cultures were grown in Brain Heart Infusion broth (BHI) supplemented with 7.5 μM of hemin and 2 μg/ml NAD with or without the addition of peptide for 24 hours. The number of viable cells for every reaction mixture was then determined by serially diluting and spotting 10-μl aliquots in triplicates on BHI agar plates supplemented with 15 μM hemin and 3 μM NAD. Porphyromonas gingivalis 2561 was obtained from ATCC (33277). Pre-reduced, anaerobically sterilized Brucella Broth and BRU—Brucella Blood Agar—were purchased from Anaerobe systems (CA, USA). They were opened just before use. Static cultures and plates were incubated at 37° C. in an incubation chamber from BD GasPak™ EZ Container Systems. Anaerobic conditions were maintained by using BD BBL CO2 gas generators and BD BB GasPak™ CO2 indicators. Cultures were grown anaerobically in Brucella Broth with or without addition of peptides for 48 hours and viable cells for every reaction mixture were then determined by serially diluting and spotting 10-μ1 aliquots in triplicates on Brucella Blood Agar.

[4] = test system: ndvA (FeuP regulated), SMc 01581 (ExoS regulated); assay: qRT-PCR of FeuP and ExoS regulated genes; type: cell-based, Sinorhizobium meliloti; conditions: 2 μM, 30 mins; listed as L-NCR247
Excerpt: FIG. 17. […] The data are expressed as starting quantities (SQ) of respective mRNAs normalized to the control gene SMc00128 and are presented as average of three technical replicates FIG. 18. NCR247 binds heme and this heme sequestration leads to an iron starvation response in S. meliloti and this happens in the cytoplasm since a bacA mutant is defective in inducing iron import genes. […] The data are expressed as starting quantities (SQ) of respective mRNAs normalized to the control gene SMc00128 and are presented as average of three technical replicates. […] Data are presented as average of three technical replicates
RNA isolation and qRT-PCR analysis: Cells were grown in LB until they reached an O.D.600 nm of 0.2. Then cells were spun down and suspended in minimal media with or without appropriate FeSO4 concentrations for 1 hour. NCR247 was then added and 5 ml of appropriate cultures were spun down at given time intervals. Total RNA was extracted using Trizol™ (Thermo Fisher Scientific) method. Qiagen RNeasy™ kit was used to purify the RNA. […] The standard curve method was used for relative quantification. […] This curve was then used for extrapolating relative expression level of each gene of interest in a particular sample to obtain the starting quantities (SQ). […] These normalized values are then expressed as an average of triplicates, with standard deviation (s.d.) represented by the error bars. […]

RNGCIVDPRCPYQQCRRPLYCRRR [NCR247]
expression of iron uptake genes [1]: increase in transcript levels of iron uptake genes | expression of iron uptake genes ([1]; listed as L-NCR247): increase in expression of hmuP | expression of rirA ([1]; 2 μM): rirA transcription was reduced | capacity of T. gondii to form plaques (Toxoplasma gondii): massive reduction in the capacity of the parasite to form plaques | formation of Z-ring (Z-ring (FtsZ-GFP)): results in inhibition of assembly of the Z-ring; also recorded: greatly reduced | Cell death in 24 hours (Sinorhizobium meliloti [2]; 6 uM peptide): 10000 fold decrease in fold decrease in cell number | reduction in number of S. meliloti cells (bactericidal effect) (Sinorhizobium meliloti [2]; incubated 24 hours, plated in non-selective medium): causes a reduction in the number of S. meliloti cells | inhibition of growth of S. meliloti (bacteriostatic effect) (Sinorhizobium meliloti [3]): reduction in growth rate; also recorded: inhibits the growth of Sinorhizobium meliloti | growth / viable cell number of P. gingivalis (Porphyromonas gingivalis): can prevent the growth | growth / viable cell number of P. gingivalis (Porphyromonas gingivalis; listed as L-NCR247): Reduction of viable cell number | water solubility (Water solubility): highly water soluble | expression of FeuP and ExoS regulated genes [4]: increased in expression; also recorded: increase in expression of ndvA
